CSCC1CN(/N=C/c2ccc([N+](=O)[O-])o2)C(=O)O1 (configuration not stated)
solubility (mole fraction)
Settings | 293.15 K | 298.15 K | 303.15 K | 308.15 K | 313.15 K | 318.15 K | 323.15 K | 328.15 K | 333.15 K
in DMF | 0.012 | 0.015 | 0.0186 | 0.0229 | 0.0279 | 0.0338 | 0.0405 | 0.0483 | 0.0571
in DMSO | 0.0172 | 0.021 | 0.0255 | 0.0307 | 0.0367 | 0.0435 | 0.0511 | 0.0596 | 0.069
in THF | 0.000618 | 0.000801 | 0.00103 | 0.00131 | 0.00166 | 0.00209 | 0.0026 | 0.00322 | 0.00397
in acetic acid | 0.000206 | 0.000275 | 0.000364 | 0.000479 | 0.000624 | 0.000808 | 0.00104 | 0.00133 | 0.00168
in acetone | 0.00109 | 0.0014 | 0.00178 | 0.00225 | 0.00281 | 0.0035 | 0.00432 | 0.0053 | –
in acetonitrile | 0.00235 | 0.00296 | 0.00369 | 0.00457 | 0.00562 | 0.00687 | 0.00835 | 0.0101 | 0.0121
in dichloromethane | 0.00151 | 0.00192 | 0.00242 | 0.00303 | – | – | – | – | –
in ethanol | 1.98e-05 | 2.7e-05 | 3.65e-05 | 4.89e-05 | 6.49e-05 | 8.54e-05 | 0.000111 | 0.000144 | 0.000185
in ethyl acetate | 0.000224 | 0.000297 | 0.000389 | 0.000505 | 0.000651 | 0.000832 | 0.00106 | 0.00133 | 0.00167
in isopropanol | 1.45e-05 | 2e-05 | 2.73e-05 | 3.69e-05 | 4.94e-05 | 6.56e-05 | 8.63e-05 | 0.000113 | 0.000146
in methanol | 3.84e-05 | 5.31e-05 | 7.26e-05 | 9.85e-05 | 0.000132 | 0.000177 | 0.000234 | 0.000308 | 0.000403
in water | 1.53e-05 | 2.06e-05 | 2.75e-05 | 3.63e-05 | 4.74e-05 | 6.16e-05 | 7.93e-05 | 0.000101 | 0.000129

Reference: BigSolDB 2.1
